In publication PMC4311625, “Structural determinants for binding to angiotensin converting enzyme 2 (ACE2) and angiotensin receptors 1 and 2” (Frontiers in Pharmacology, 2015):
Read-outs that look alike come from different tables or passages of the source. Ends that are not written are not given here.

Columns and labels:
ACE2 [1] = target: T1, ACE2 (Homo sapiens, UniProt Q9BYF1); assay: ACE2 quenched fluorescence substrate (QFS) inhibition assay; format: biochemical; conditions: for inhibition at 0.1 µM: peptide 0.1 μM, read-out: Inhibition (%) of ACE2, AngII chimeras, 0.1 μM; for inhibition at 1 µM / Inhibition (%) of ACE2, AngII chimeras, 1 μM: peptide 1 μM; for inhibition at 1 µM: read-out: Inhibition (%) of ACE2, AngII chimeras, 1 μM; for inhibition at 100 µM / Inhibition (%) of ACE2, AngII chimeras, 100 μM: peptide 100 μM
Method: Angiotensin converting enzyme 2 QFS assays were performed for 1 h in 50 uM QFS, 1 M NaCl, 100 mM Tris-Cl, pH 6.5 at 37∘C on a BMG LabTechnologies (Offenburg, Germany), FLUOStar Optima in a 96 well-plate. Subsequent data analysis determined the inhibition of native AngII, its analogs and C-terminal peptides compared to the ACE2 QFS substrate [MCA-APK(DNP)-OH, [Vickers et al., 2002]]. […] Three controls were included in each ACE2 QFS assay; AngII (100 and 10 μM), IHPF (100 μM) and a known ACE2 inhibitor (1 nM; Millennium Pharmaceuticals, Cambridge, MA, USA). QFS assay results were accepted when ACE2 inhibition by AngII (10 μM) was 80 ± 5%, IHPF was 65 ± –5% and the ([Qian et al., 1999]) ‘Millennium Inhibitor’ was 70 ± –5%. Acceptable coefficients of variation (CV; standard deviation/mean × 100) for sample triplicates were <7%.
A library of 40 tetrapeptides based on the four C-terminal residues of Ang II (Ile-His-Pro-Phe/IHPF) was generated and screened for ACE2 binding at 100 μM in order to identify key residues of the C-terminus of Ang II involved in binding to the ACE2 active site. […] Several substitutions (Val, Tyr, Ala, Gly, Phe, Trp, Pro, His, Ile, and Leu) were made in order to further probe the highly hydrophobic and cyclic specificity of the C-terminus of Ang II. A β-napthalene amino acid (Nth) derivative was used as a highly hydrophobic non-natural cyclic residue substitute, and Arg and Lys were substituted for histidine at the second position from the N-terminus of the tetrapeptide to determine if positive charge or other structural or positional requirements were important.

ACE2 [2] = target: T1, ACE2; assay: LC–MS ACE2 proteolytic cleavage assay; format: in vitro ADME; conditions: for Cleavage (%) by ACE2, 1 μM: peptide 1 μM incubated with ACE2 at 37 °C, typically 4-5 h; for Cleavage (%) by ACE2, 1 μM / Cleavage (%) by ACE2, 10 μM / Cleavage (%) by ACE2, 100 μM: LC–MS; for Cleavage (%) by ACE2, 10 μM: peptide 10 μM incubated with ACE2 at 37 °C; for Cleavage (%) by ACE2, 10 μM / Cleavage (%) by ACE2, 100 μM: typically 4-5 h (5 h); for Cleavage (%) by ACE2, 100 μM: peptide 100 μM incubated with ACE2 at 37 °C
Method: The first hour of the incubation was performed in the Fluorostar Optima plate reader in order to confirm previously observed level of inhibition, then for the remaining time the samples were transferred to small microfuge tubes and incubated in a water bath. The extent of ACE2 cleavage was assessed by LC–MS on an Agilent capillary HP1100, MSD VL3000 Ion-Trap system.

AT2R = assay: Whole cell competition binding with [125I]-Ang II, AT2R-transfected HEK-293 cells; conditions: relative binding, displacement of 125I-Ang II in AT2R-transfected HEK-293 cells; 100 nM (Table 6)
Method: The generation of plasmids expressing HA-tagged versions of the AT1R and AT2R have been previously described [Qian et al. (1999)], [D’Amore et al. (2005)]. HEK-293 cells in 12 well-plates were transfected with either AT1R or AT2R plasmids (0.6 μg/well) using lipofectAMINE (4⋅8 μl/well), as previously described [Thomas et al. (1998)] and stably expressing clones obtained by selection with G418 (1 mg/ml) and limiting dilution. HEK clones expressing either AT1R or AT2R were plated in 12 well-plates for whole cell competition binding assays using the non-selective Ang II ligand, [^125I]-Ang II and selected concentrations of Ang II, PD123319 (an AT2-selective ligand) and the various β-substituted Ang II peptides. Non-linear regression of the data was achieved using GraphPad Prism (GraphPad Software Inc., San Diego, CA, USA) to determine relative displacement of chimeric Ang II analogs as compared to ^125I-Ang II in either AT1R- or AT2R- transfected HEK-293 cells.

AT1R = target: T2, AT1R (Rattus norvegicus, UniProt P25095); assay: Whole cell competition binding with [125I]-Ang II, AT1R-transfected HEK-293 cells; conditions: relative binding, displacement of 125I-Ang II in AT1R-transfected HEK-293 cells; 100 nM (Table 6)
T2 construct: HA; expressed in transfected cells
T2 sequence (P25095 1-359): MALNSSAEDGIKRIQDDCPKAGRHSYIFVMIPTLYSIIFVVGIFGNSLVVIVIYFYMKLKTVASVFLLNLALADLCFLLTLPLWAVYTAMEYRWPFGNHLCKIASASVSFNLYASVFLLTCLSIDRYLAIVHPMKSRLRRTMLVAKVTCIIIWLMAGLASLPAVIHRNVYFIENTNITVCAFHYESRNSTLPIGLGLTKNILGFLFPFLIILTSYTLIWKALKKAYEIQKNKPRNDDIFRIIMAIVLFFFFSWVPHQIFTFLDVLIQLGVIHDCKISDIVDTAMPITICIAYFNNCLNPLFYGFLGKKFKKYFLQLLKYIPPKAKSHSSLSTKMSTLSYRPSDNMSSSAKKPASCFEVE
Method: The generation of plasmids expressing HA-tagged versions of the AT1R and AT2R have been previously described [Qian et al. (1999)], [D’Amore et al. (2005)]. HEK-293 cells in 12 well-plates were transfected with either AT1R or AT2R plasmids (0.6 μg/well) using lipofectAMINE (4⋅8 μl/well), as previously described [Thomas et al. (1998)] and stably expressing clones obtained by selection with G418 (1 mg/ml) and limiting dilution.

[3] = QFS assay, pH 6.5, 37 °C, 1 h, value ± spread
[4] = peptide 10 μM, QFS assay, pH 6.5, 37 °C, 1 h, value ± spread, read-out: Inhibition (%) of ACE2, AngII chimeras, 10 μM
[5] = peptide 10 μM, QFS assay, pH 6.5, 37 °C, 1 h, value ± spread

T1 sequence (Q9BYF1 18-805, species assumed): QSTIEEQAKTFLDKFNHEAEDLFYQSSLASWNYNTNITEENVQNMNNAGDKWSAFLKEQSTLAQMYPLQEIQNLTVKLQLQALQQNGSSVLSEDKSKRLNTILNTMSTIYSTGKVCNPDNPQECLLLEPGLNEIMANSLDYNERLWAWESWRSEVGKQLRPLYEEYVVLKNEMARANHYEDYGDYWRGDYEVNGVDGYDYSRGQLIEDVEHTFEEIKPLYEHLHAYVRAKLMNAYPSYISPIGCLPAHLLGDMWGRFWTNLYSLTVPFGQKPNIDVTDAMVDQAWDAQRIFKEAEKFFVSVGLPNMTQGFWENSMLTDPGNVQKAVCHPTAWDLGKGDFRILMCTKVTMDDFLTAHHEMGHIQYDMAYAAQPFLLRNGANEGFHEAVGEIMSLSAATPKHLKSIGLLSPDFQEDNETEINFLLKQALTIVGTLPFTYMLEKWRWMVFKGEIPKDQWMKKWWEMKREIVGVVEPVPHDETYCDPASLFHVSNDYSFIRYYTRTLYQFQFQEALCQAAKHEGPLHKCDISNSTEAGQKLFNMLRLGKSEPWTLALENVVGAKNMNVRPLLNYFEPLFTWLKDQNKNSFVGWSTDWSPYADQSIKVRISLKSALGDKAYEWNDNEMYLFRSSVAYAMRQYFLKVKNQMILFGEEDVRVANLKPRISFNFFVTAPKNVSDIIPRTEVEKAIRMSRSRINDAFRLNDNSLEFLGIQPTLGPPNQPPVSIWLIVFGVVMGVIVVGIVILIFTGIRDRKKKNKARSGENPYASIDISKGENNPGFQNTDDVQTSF

## CC[C@H](C)[C@H](NC(=O)[C@H](Cc1ccc(O)cc1)NC(=O)[C@@H](NC(=O)[C@H](CCCNC(=N)N)NC(=O)[C@@H](N)CC(=O)O)C(C)C)C(=O)N[C@@H](Cc1cnc[nH]1)C(=O)N1CCC[C@H]1C(=O)N[C@@H](Cc1ccccc1)C(=O)O [Angiotensin II, reference compound]
ACE2 [1]; [3]
  inhibition at 0.1 µM: -5%
  inhibition at 1 µM: 21 ± 6.8%
ACE2 [1]; [4]
  inhibition at 10 µM: 77 ± 2.9%
ACE2 [1]; 50 uM QFS, 1 M NaCl, 100 mM Tris-Cl pH 6.5, 37 °C, 1 h, triplicate, read-out: Inhibition (%) of ACE2, single and multiple residue substitution analogs (Table 2)
  inhibition at 100 µM: 97%
ACE2 [1]; QFS assay, pH 6.5, 37 °C, 1 h, value ± spread, read-out: Inhibition (%) of ACE2, AngII chimeras, 100 μM
  inhibition at 100 µM: 99 ± 0.3%
ACE2 [1]; read-out: ACE2 inhibition by control, acceptance window of QFS assay
  inhibition at 10 µM: 80 ± 5%
ACE2 [2]
  Cleavage (%) by ACE2, 1 μM: 93%
ACE2 [2]; listed as D1R2V3Y4I5H6P7F8
  Cleavage (%) by ACE2, 10 μM: 40 ± 2%
ACE2 [2]; listed as native Ang II
  Cleavage (%) by ACE2, 10 μM: 40%

## DRVYIYPF
ACE2 [1]; [3]
  inhibition at 0.1 µM: 17%
  inhibition at 1 µM: 78 ± 2%
ACE2 [1]; [4]
  inhibition at 10 µM: 96%
ACE2 [2]
  Cleavage (%) by ACE2, 1 μM: 85%
  Cleavage (%) by ACE2, 10 μM: 18 ± 1.2%

## DRVYIYPβF
ACE2 [1]; [3]
  Inhibition (%) of ACE2, AngII chimeras, 1 μM: –1 ± 6.8%
  Inhibition (%) of ACE2, AngII chimeras, 100 μM: 53 ± 1.9%
ACE2 [1]; [5]
  Inhibition (%) of ACE2, AngII chimeras, 10 μM: completely abolished
ACE2 [1]; peptide 10 μM, QFS assay, pH 6.5, 37 °C, 1 h, value ± spread, listed as DRVYI YPβF
  Inhibition (%) of ACE2, AngII chimeras, 10 μM: 0 ± 5%
AT2R
  AT2R binding (%): 25%
ACE2 [2]
  Cleavage (%) by ACE2, 10 μM: 0 ± 0%
  Cleavage (%) by ACE2, 100 μM: complete resistance to proteolytic cleavage
ACE2 [2]; listed as DRVYI YPβF
  Cleavage (%) by ACE2, 100 μM: 0 ± 0%
AT1R
  AT1R binding (%): 30%

## DRVYIYβPF
ACE2 [1]; [3]
  Inhibition (%) of ACE2, AngII chimeras, 1 μM: –4 ± 9.8%
  Inhibition (%) of ACE2, AngII chimeras, 100 μM: 72 ± 1.5%
ACE2 [1]; [5]
  Inhibition (%) of ACE2, AngII chimeras, 10 μM: 10 ± 5.8%
AT2R
  AT2R binding (%): 80%
ACE2 [2]
  Cleavage (%) by ACE2, 10 μM: 0 ± 0%
  Cleavage (%) by ACE2, 100 μM: complete resistance to proteolytic cleavage
ACE2 [2]; listed as DRVYI YβPF
  Cleavage (%) by ACE2, 100 μM: 0 ± 0%
AT1R
  AT1R binding (%): 0%

## DRVYVYPF
ACE2 [1]; [3]
  inhibition at 0.1 µM: 31 ± 3.5%
  inhibition at 1 µM: 84 ± 2.7%
ACE2 [1]; [4]
  inhibition at 10 µM: 98 ± 0.3%
ACE2 [2]; 10 μM, over 5 h
  fold less cleavage by ACE2 compared to native Ang II: approximately 4 fold
ACE2 [2]
  Cleavage (%) by ACE2, 1 μM: 64%
  Cleavage (%) by ACE2, 10 μM: 9 ± 0.3%

## DRVYVYPβF
ACE2 [1]; [3]
  Inhibition (%) of ACE2, AngII chimeras, 1 μM: 2 ± 3.6%
  Inhibition (%) of ACE2, AngII chimeras, 100 μM: 59 ± 2.1%
ACE2 [1]; [5]
  Inhibition (%) of ACE2, AngII chimeras, 10 μM: 15 ± 9%
AT2R
  AT2R binding (%): 25%
ACE2 [2]
  Cleavage (%) by ACE2, 100 μM: complete resistance to proteolytic cleavage
AT1R
  AT1R binding (%): 0%

## DRVYVYβPF
ACE2 [1]; [3]
  Inhibition (%) of ACE2, AngII chimeras, 1 μM: 0 ± 11.4%
  Inhibition (%) of ACE2, AngII chimeras, 100 μM: 90 ± 0.6%
ACE2 [1]; [5]
  Inhibition (%) of ACE2, AngII chimeras, 10 μM: 42 ± 4.4%
AT2R
  AT2R binding (%): 75%
ACE2 [2]
  Cleavage (%) by ACE2, 10 μM: 0 ± 0%
  Cleavage (%) by ACE2, 100 μM: complete resistance to proteolytic cleavage
ACE2 [2]; listed as DRVY VYβPF
  Cleavage (%) by ACE2, 100 μM: 0 ± 0%
AT1R
  AT1R binding (%): 0%
